Measured values as given in US5872104A, “Combinations and methods for reducing antimicrobial resistance” (Oridigm Corporation, priority 1994, dated 1999).
Like-named read-outs stand apart in the source and are kept apart here.

How the values were obtained:
L1210 cells = conditions: absence of polyamine depletion; cited from earlier work
SAM synthetase = conditions: cited from earlier work
[1] = tested on: vaccinia virion mRNA(guanine-7)methyltransferase; conditions: 100 μM; cited from earlier work
adenosine deaminase = conditions: cited from earlier work
[2] = tested on: vesicular stomatitis virus; conditions: primary rabbit kidney cells; cited from earlier work
human retrovirus = conditions: cited from earlier work
SAH hydrolase = conditions: cited from earlier work; for Ki: De Clercq & Cools (1985)
GSH = conditions: cited from earlier work; for reduction of GSH levels: 0.2 mmol/kg (S) and 0.4 mmol/kg (S,R), liver, kidney and pancreas; for depletion of GSH: 0.2 mg/kg
tRNA methylases = conditions: cited from earlier work
[3] = mice, cited from earlier work
SAHH hydrolase = conditions: cited from earlier work
[4] = tested on: RNA methyltransferase from Streptomyces antibioticus; conditions: 100 μM; cited from earlier work
methyl transfer from SAM = conditions: cited from earlier work
[5] = tested on: tumor-derived methionine adenosyltransferases; conditions: cited from earlier work
[6] = tested on: S. aureus 27660 (erythromycin resistant); assay type: cell-based; conditions: in combination with erythromycin
[7] = tested on: RNA synthesis in Hela cells; conditions: cited from earlier work

Q: Which IC50 (L1210 cells) does the source give for `C[Se]CC[C@H](N)C(=O)O` [selenomethionine] here?
A: The IC50 was 130 µM.

Q: With `NC1(C(=O)O)CC2CC1C1CCCC21` [(1R,2R,4S) isomer of 2-amino-5,6-exo-trimethylenenorbornane-2-carboxylic acid, 2-amino-5,6-exo-trimethylenenorbornane-2-carboxylic acid] as the compound, how does the SAM synthetase inhibition (SAM synthetase) read?
A: The SAM synthetase inhibition was “effective inhibitors”.

Q: With `Nc1ncnc2c1ncn2[C@@H]1C[C@H](CSCC[C@H](N)C(=O)O)[C@@H](O)[C@H]1O` [S-aristeromycinyl-L-homocysteine] as the compound, how does the inhibition [1] read?
A: Its inhibition is 66%.

Q: With `OC[C@H]1O[C@@H](n2cnc3c2N=CNC[C@H]3O)[C@H](O)[C@@H]1O` [Coformycin] as the compound, how does the ADA inhibition (adenosine deaminase) read?
A: Its ADA inhibition is “potent inhibitors of ADA”.

Q: Which results are given for `CC(C)COC(=O)C(O)Cn1cnc2c(N)ncnc21` (racemic) [(RS)-AHPA isobutyl ester]?
A: minimum inhibitor concentration (50% reduction of cytopathogenicity) [2]: 2 µg/mL; effective inhibitory concentration (human retrovirus): ~1.2 µg/mL; activity index (human retrovirus; in vitro cytotoxicity vs activity): 80

Q: For `CS/C=C\[C@H](N)C(=O)O` (stereo in doubt) [L-cis-AMTB, L-2-amino-4-methylthio-cis-but-3-enoic acid], which “inhibitory potency relative to L-cis-AMB” value (SAM synthetase) is on record?
A: The value was “slightly less inhibitory than L-cis-AMB”.

Q: With `Nc1nc(N)c2ncn([C@@H]3C[C@H](O)[C@@H](O)[C@H]3O)c2n1` (relative stereo) [2,6-diamino-analogue] as the compound, how does the SAH hydrolase inhibition (SAH hydrolase) read?
A: Its SAH hydrolase inhibition is “inhibitors of SAHH”.

Q: Which “reduction of GSH levels” value (GSH) does the source give for `CCCC[S@](=N)(=O)CC[C@H](N)C(=O)O` [L-buthionine-(S)-sulfoximine] here?
A: The value was “effective in reducing GSH levels”.

Q: For `CN(C)c1ncnc2[nH]cnc12` [6-dimethyladenine], which “inhibition of tRNA methylases” value (tRNA methylases) is on record?
A: The value was “possible exceptions”.

Q: For `NC(C(=O)O)C1CCCC1` (stereo not shown) [cyclopentaneglycine], which SAM synthetase inhibition (SAM synthetase) is on record?
A: The SAM synthetase inhibition was “effective inhibitors”.

Q: With `CC1(C)N=C(N)N=C(N)N1c1ccc(CCCCc2ccc(S(=O)(=O)F)cc2Cl)c(Cl)c1` [NSC 127755] as the compound, how does the “s.c. toxicity (LD100)” value ([3]; s.c.) read?
A: The value was ≥ 156 mg/kg.

Q: With 6-mercaptoadenine as the compound, how does the “inhibition of tRNA methylases” value (tRNA methylases) read?
A: Its value is “gave inhibition that would be acceptable”.

Q: For `Nc1ncnc2c1ncn2CC(O)C(=O)O` (racemic) [(RS)-AHPA, (R,S)-3-adenine-9-yl-2-hydroxypropanocic acid], which Ki (SAH hydrolase) is on record?
A: The Ki was 0.073 µM.

Q: With `Nc1c2nc[nH]c2nc[n+]1[O-]` [adenine-N^1 -oxide] as the compound, how does the “inhibition of tRNA methylases” value (tRNA methylases) read?
A: The value was “gave inhibition that would be acceptable”.

Q: For `NC1(C(=O)O)CC2CCC2C1` (stereo not shown) [3-aminobicyclo[3.2.0]heptane-3-carboxylic acid], which SAM synthetase inhibition (SAM synthetase) is on record?
A: The SAM synthetase inhibition was “effective inhibitors”.

Q: Which inhibition [1] does the source give for `Nc1ncnc2c1ncn2[C@@H]1O[C@H](C[S+]([O-])CC[C@H](N)C(=O)O)[C@@H](O)[C@H]1O` (stereo partly drawn) [S-adenosyl-L-homocysteine sulfoxide] here?
A: Its inhibition is 47%.

Q: Which results are given for `CCCC[S@@](=N)(=O)CC[C@H](N)C(=O)O` [L-buthionine-(R)-sulfoximine]?
A: depletion of GSH (GSH; kidney): modest depletion in the kidney; depletion of GSH (GSH; liver or pancreas): did not show any significant depletion of GSH

Q: For `Nc1nccc2c1ncn2[C@@H]1CC[C@@H](O)[C@H]1O` [c^3 -DHCaA, dihydroxycyclopentanyl-3-deazaadenine], which “antiviral activity and cytotoxicity vs first generation” value (SAHH hydrolase) is on record?
A: Its value is “retained antiviral activity and considerably lower cytotoxicity than their parent first generation inhibitors”.

Q: For `CNc1ncnc2[nH]cnc12` [6-methyladenine], which “inhibition of tRNA methylases” value (tRNA methylases) is on record?
A: Its value is “gave inhibition that would be acceptable”.

Q: Which inhibition [1] does the source give for `Nc1ncnc2c1ncn2[C@@H]1O[C@H](CS(=O)(=O)CC[C@H](N)C(=O)O)[C@@H](O)[C@H]1O` [S-adenosyl-L-homocysteine sulfone] here?
A: Its inhibition is 40%.

Q: For `CSCSC[C@H]1O[C@@H](n2cnc3c(N)ncnc32)[C@H](O)[C@@H]1O` [5'-S-methylthiomethyladenosine], which inhibition [4] is on record?
A: Its inhibition is 65%.

Q: For `C[S+](CC[C@H](N)C(=O)O)C[C@H]1O[C@@H](n2cnc3c(=O)[nH]cnc32)[C@H](O)[C@@H]1O` (stereo partly drawn) [S-inosyl-L-methionine], which inhibition (methyl transfer from SAM) is on record?
A: Its inhibition is “effective inhibitors”.

Q: Which inhibition [5] does the source give for `NC1(C(=O)O)CCC1` [1-aminocyclobutanecarboxylic acid] here?
A: The inhibition was “effective inhibitors”.

Q: Which “antiviral activity and cytotoxicity vs first generation” value (SAHH hydrolase) does the source give for `Nc1ncnc2c1ncn2[C@@H]1CC[C@@H](O)[C@H]1O` [DHCaA, dihydroxycyclopentanyladenine] here?
A: The value was “retained antiviral activity and considerably lower cytotoxicity than their parent first generation inhibitors”.

Q: With `Nc1ncnc2nc[nH]c12.O=S(=O)(O)O` [adenine sulfate] as the compound, how does the “inhibition of tRNA methylases” value (tRNA methylases) read?
A: Its value is “gave inhibition that would be acceptable”.

Q: With `Nc1ncnc2nc[nH]c12.O=P(O)(O)O` [adenine phosphate] as the compound, how does the “inhibition of tRNA methylases” value (tRNA methylases) read?
A: Its value is “gave inhibition that would be acceptable”.

Q: Which inhibition [5] does the source give for `CC[Se]CCC(N)C(=O)O` (racemic) [seleno-DL-ethionine] here?
A: Its inhibition is “effective inhibitors”.

Q: With 6-methoxyadenine as the compound, how does the “inhibition of tRNA methylases” value (tRNA methylases) read?
A: The value was “possible exceptions”.

Q: With `Nc1ncnc2c1ncn2[C@@H]1O[C@H](CO)[C@@H](O)[C@@H]1O` [Ara-A, 9-β-arabinofuranosyladenine] as the compound, how does the “enhanced killing with erythromycin” value [6] read?
A: Its value is “enhanced the killing”.

Q: What about the SAH hydrolase inhibition (SAH hydrolase) of the same compound?
A: Its SAH hydrolase inhibition is “suicide inactivators of SAH hydrolase”.

Q: What about the “activity relative to 2'-deoxyadenosine” value (SAH hydrolase; suicide inactivation of SAH hydrolase) of the same compound?
A: The value was “twice as active as 2'-deoxyadenosine”.

Q: What about the LD50 ([3]; i.p.) of the same compound?
A: The LD50 was 4,677 mg/kg.

Q: What about the LD50 ([3]; orally) of the same compound?
A: The LD50 was 7,950 mg/kg.

Q: Which inhibition [1] does the source give for `Nc1nccc2c1ncn2[C@@H]1O[C@H](CSCC[C@H](N)C(=O)O)[C@@H](O)[C@H]1O` [S-(3-deazaadenosyl)-L-homocysteine] here?
A: The inhibition was 84%.

Q: Which inhibition [5] does the source give for `CCSCC[C@H](N)C(=O)O` [L-ethionine] here?
A: The inhibition was “effective inhibitors”.

Q: For `Nc1nccc2c1ncn2[C@@H]1C=C[C@@H](O)[C@H]1O` [c^3 -DHCeA, dihydroxycyclopentenyl-3-deazaadenine], which “antiviral activity and cytotoxicity vs first generation” value (SAHH hydrolase) is on record?
A: The value was “retained antiviral activity and considerably lower cytotoxicity than their parent first generation inhibitors”.

Q: With `Nc1nc(F)nc2c1ncn2[C@@H]1O[C@H](CSCCC(N)C(=O)O)[C@@H](O)[C@H]1O` (stereo partly shown) [2-FSAH, 2-fluoro-S-adenosylhomocysteine] as the compound, how does the SAH hydrolase inhibition (SAH hydrolase) read?
A: The SAH hydrolase inhibition was “effective inhibitor of SAHH”.

Q: With `CC=CC[C@H](N)C(=O)O` [L-2-amino-4-hexanoic acid] as the compound, how does the inhibition [5] read?
A: The inhibition was “effective inhibitors”.

Q: For `Nc1ncnc2c1ncn2C1OC(CC2CCC(N)C(=O)N2)C(O)C1O` (stereo not shown) [cyclosinefungin], which inhibition [4] is on record?
A: Its inhibition is 50%.

Q: Which “reduction of GSH levels” value (GSH) does the source give for `CCCCS(=N)(=O)CC[C@H](N)C(=O)O` (stereo partly drawn) [L-buthionine-(S,R)-sulfoximine] here?
A: Its value is “effective in reducing GSH levels”.

Q: For `Nc1nccc2c1ncn2[C@@H]1C[C@H](CO)[C@@H](O)[C@H]1O` [carbocyclic 3-deazaadenosine, carbocyclic-3-deazaadenosine], which Ki (SAH hydrolase) is on record?
A: Its Ki is 0.013 µM.

Q: What about the “minimum inhibitor concentration (50% reduction of cytopathogenicity)” value [2] of the same compound?
A: The value was 0.2 µg/mL.

Q: What about the effective inhibitory concentration (human retrovirus) of the same compound?
A: The effective inhibitory concentration was ~1.4 µg/mL.

Q: With `NC1(C(=O)O)CC2CC1C2` (single isomer, unassigned; (+)) [(+)-2-aminobicyclo[2.1.1]hexane-2-carboxylic acid] as the compound, how does the SAM synthetase inhibition (SAM synthetase) read?
A: Its SAM synthetase inhibition is “most effective”.

Q: What about the inhibition [5] of the same compound?
A: Its inhibition is “most effective”.

Q: And the IC50 (L1210 cells)?
A: Its IC50 is 5000 µM.

Q: With `Nc1ncnc2c1ncn2C[C@H](O)CO` [(S)-DHPA, 9(S)-(2,3-dihydroxypropyl)adenine] as the compound, how does the Ki (SAH hydrolase) read?
A: The Ki was 1.4 µM.

Q: And the “minimum inhibitor concentration (50% reduction of cytopathogenicity)” value [2]?
A: The value was 20 µg/mL.

Q: And the effective inhibitory concentration (human retrovirus)?
A: Its effective inhibitory concentration is “about 60 μg/ml”.

Q: With `OCC1NC=Nc2c1ncn2[C@@H]1O[C@H](CO)[C@@H](O)[C@H]1O` (stereo partly shown) [1,6-dihydro-6-hydroxy-methylpurine nucleoside] as the compound, how does the ADA inhibition (adenosine deaminase) read?
A: The ADA inhibition was “inhibitors of ADA”.

Q: With `C[S+](CCCN)C[C@H]1O[C@@H](n2cnc3c(N)ncnc32)[C@H](O)[C@@H]1O` (stereo partly shown) [S-adenosyl-(5')-3-methylthio-propylamine] as the compound, how does the inhibition (methyl transfer from SAM) read?
A: The inhibition was “effective inhibitors”.

Q: With `Nc1ncnc2c1ncn2[C@@H]1C=C[C@@H](O)[C@H]1O` [DHCeA, dihydroxycyclopentenyladenine] as the compound, how does the “antiviral activity and cytotoxicity vs first generation” value (SAHH hydrolase) read?
A: The value was “retained antiviral activity and considerably lower cytotoxicity than their parent first generation inhibitors”.

Q: Which inhibition [5] does the source give for `C/C(Cl)=C/C[C@H](N)C(=O)O` [(Z)-L-2-amino-5-chloro-trans-4-hexanoic acid] here?
A: The inhibition was “effective inhibitors”.

Q: Which SAM synthetase inhibition (SAM synthetase) does the source give for `N[C@]1(C(=O)O)C[C@H]2CC[C@@H]1C2` [(1R,2R,4S) isomer of 2-aminonorbornane-2-carboxylic acid, 2-aminonorbornane-2-carboxylic acid] here?
A: Its SAM synthetase inhibition is “effective inhibitors”.

Q: With `NC1(C(=O)O)CCCCC1` [1-aminocyclohexanecarboxylic acid] as the compound, how does the inhibition [5] read?
A: The inhibition was “effective inhibitors”.

Q: With `Nc1ncnc2c1ncn2[C@H]1C[C@H](O)[C@@H](CO)O1` [2'-deoxyadenosine] as the compound, how does the “enhanced killing with erythromycin” value [6] read?
A: The value was “enhanced the killing”.

Q: And the SAH hydrolase inhibition (SAH hydrolase)?
A: Its SAH hydrolase inhibition is “suicide inactivators of SAH hydrolase”.

Q: Which RNA synthesis ([7]; 200 μg/ml) does the source give for `Nc1ncnc2c1ncn2[C@@H]1O[C@H](CO)C[C@H]1O` [Cordycepin, 3'-deoxyadenosine] here?
A: The RNA synthesis was “totally inhibits RNA synthesis”.

Q: And the “DNA and protein synthesis” value [7]?
A: The value was “not affected”.

Q: And the “synthesis of mature rRNA, ribosomal precursor 45S RNA and tRNA” value [7]?
A: Its value is “inhibits the synthesis of mature rRNA, ribosomal precursor 45S RNA and tRNA”.

Q: What about the “rRNA and tRNA syntheses” value ([7]; lower concentrations) of the same compound?
A: The value was “selectively inhibited”.
